Common to all, as to type: functional, organism-based
In assay [1] the test system is Acodontaster conspicuus. As to the kind of experiment: Antimicrobial activity against Acodontaster conspicuus McM13.3 at 20 degC after 48 hrs by paper disk method.
For assay [2], the system named is Acodontaster conspicuus. As to the kind of experiment: Antimicrobial activity against Acodontaster conspicuus McM32.2 at 20 degC after 48 hrs by paper disk method.
In assay [3] the test system is Acodontaster conspicuus. As to the kind of experiment: Antimicrobial activity against Acodontaster conspicuus McM18.1 at 20 degC after 48 hrs by paper disk method.
The test system of assay [4] is Acodontaster conspicuus. As to the kind of experiment: Antimicrobial activity against Acodontaster conspicuus McM11.5 at 20 degC after 72 hrs by paper disk method.

SMILES strings stand for the structures. The source made the active and inactive calls. The rule behind the calls is not given here.

Results on twelve molecules are retold here after ChEMBL document CHEMBL1158324, “Isolation, structure elucidation, and biological activity of the steroid oligoglycosides and polyhydroxysteroids from the Antarctic starfish Acodontaster conspicuus” (J Nat Prod, 1997).

Regarding `CC(C)[C@@H](CCO[C@@H]1OC[C@@H](O)[C@H](O)[C@H]1O[C@@H]1OC[C@@H](O)[C@H](O)[C@H]1O)CC[C@@H](C)[C@H]1C[C@@H](O)[C@@H]2[C@]1(C)CC[C@@H]1[C@@]3(C)CC[C@H](O)[C@H](O)[C@@H]3[C@@H](O)C[C@]12O`, the result in the assay on Acodontaster conspicuus [1] and in the assay with Acodontaster conspicuus [2] was Active.
Consider `C[C@H](/C=C/[C@@H](C)[C@H]1C[C@@H](O)C2=C3C[C@H](O)C4C[C@@H](O)CC[C@]4(C)[C@H]3CC[C@@]21C)[C@H](C)CO` (some centres not stated), for which the result in the assay on Acodontaster conspicuus [1] and with Acodontaster conspicuus [2] was Active.
For `CC(C)[C@@H](C)C(=O)C[C@@](C)(O)[C@H]1CC[C@H]2[C@@H]3C[C@H](O[C@@H]4O[C@H](C)[C@@H](O)[C@H](O[C@@H]5OC[C@@H](O[C@@H]6O[C@H](CO)[C@H](O)[C@H](O)[C@H]6O[C@@H]6O[C@H](C)[C@@H](O)[C@H](O)[C@H]6O)[C@H](O)[C@H]5O[C@H]5O[C@@H](C)[C@H](O)[C@@H](O)[C@@H]5O)[C@H]4O)[C@H]4C[C@@H](OS(=O)(=O)O)CC[C@]4(C)C3=CC[C@@]21C`, the result with Acodontaster conspicuus [3], in the assay with Acodontaster conspicuus [1], in the assay with Acodontaster conspicuus [2] and with Acodontaster conspicuus [4] was inactive.
As to `CO[C@H]1[C@H](O[C@H]2[C@H](OCC[C@H](CC[C@@H](C)[C@H]3C[C@@H](O)[C@@H]4[C@]3(C)CC[C@@H]3[C@@]5(C)CC[C@H](O)[C@H](O)[C@@H]5[C@@H](O)C[C@]34O)C(C)C)OC[C@@H](O)[C@@H]2O)OC[C@@H](O)[C@@H]1O`, the outcome in the assay with Acodontaster conspicuus [1] and with Acodontaster conspicuus [2] was Active.
Take `CC(C)/C(=C/CO[C@@H]1OC[C@@H](O)[C@H](O)[C@H]1O)CC[C@@H](C)[C@H]1C[C@@H](O)C2=C3C[C@H](O)[C@H]4C[C@@H](O)CC[C@]4(C)[C@H]3CC[C@@]21C`: the result in the assay with Acodontaster conspicuus [1] and with Acodontaster conspicuus [2] was Active.
Turning to `CC(C)C[C@@H]1O[C@H]1[C@@](C)(O)[C@H]1CC[C@H]2[C@@H]3C[C@H](O[C@@H]4O[C@H](C)[C@@H](O)[C@H](O[C@@H]5OC[C@@H](O[C@@H]6O[C@H](CO)[C@H](O)[C@H](O)[C@H]6O[C@@H]6O[C@H](C)[C@@H](O)[C@H](O)[C@H]6O)[C@H](O)[C@H]5O[C@H]5O[C@@H](C)[C@H](O)[C@@H](O)[C@@H]5O)[C@H]4O)[C@H]4C[C@@H](OS(=O)(=O)O)CC[C@]4(C)C3=CC[C@]12C`, the result in the assay with Acodontaster conspicuus [3], in the assay on Acodontaster conspicuus [1], in the assay with Acodontaster conspicuus [2] and in the assay on Acodontaster conspicuus [4] was inactive.
Regarding `CC(/C=C/[C@@H](C)[C@H]1C[C@@H](O)C2=C3C[C@H](O)C4C[C@@H](O)CC[C@]4(C)[C@H]3CC[C@@]21C)CO` (some centres not stated), the outcome in the assay with Acodontaster conspicuus [1] was Active.
For `CO[C@H]1[C@H](O[C@H]2[C@H](OC[C@@H](C)[C@H](C)/C=C/[C@@H](C)[C@H]3C[C@@H](O)C4=C5C[C@H](O)[C@H]6C[C@@H](O)CC[C@]6(C)[C@H]5CC[C@@]43C)OC[C@@H](O)[C@@H]2O)OC[C@@H](O)[C@@H]1O`, the outcome in the assay with Acodontaster conspicuus [4] was Active.
For `C=C(CC[C@@H](C)[C@H]1C[C@@H](O)[C@@H]2[C@]1(C)CC[C@@H]1[C@@]3(C)CC[C@H](O)[C@H](O)[C@@H]3[C@@H](O)C[C@]12O)C(C)CO[C@@H]1OC[C@@H](O)[C@H](O)[C@H]1O[C@@H]1OC[C@@H](O)[C@H](O)[C@H]1OC` (some centres not stated), the outcome with Acodontaster conspicuus [2] was Active.
For the molecule `CC(C)[C@@H](O)/C=C/[C@@H](C)[C@H]1C[C@@H](O)[C@@H]2[C@]1(C)CC[C@H]1[C@@]2(O)C[C@H](O)C2C[C@@H](O)CC[C@@]21C` (some centres not stated), the result in the assay on Acodontaster conspicuus [1] and in the assay on Acodontaster conspicuus [2] was Active.
Take `CC(C)CC(=O)C[C@@](C)(O)[C@H]1CC[C@H]2[C@@H]3C[C@H](O[C@@H]4O[C@H](C)[C@@H](O)[C@H](O[C@@H]5OC[C@@H](O[C@@H]6O[C@H](CO)[C@H](O)[C@H](O)[C@H]6O[C@@H]6O[C@H](C)[C@@H](O)[C@H](O)[C@H]6O)[C@H](O)[C@H]5O[C@H]5O[C@@H](C)[C@H](O)[C@@H](O)[C@@H]5O)[C@H]4O)[C@H]4C[C@@H](OS(=O)(=O)O)CC[C@]4(C)C3=CC[C@@]21C`: the result in the assay on Acodontaster conspicuus [3], with Acodontaster conspicuus [1], in the assay on Acodontaster conspicuus [2] and with Acodontaster conspicuus [4] was inactive.
Take `CO[C@H]1[C@H](O[C@H]2[C@H](OC[C@@H](C)[C@H](C)/C=C/[C@@H](C)[C@H]3C[C@@H](O)[C@@H]4[C@]3(C)CC[C@@H]3[C@@]5(C)CC[C@H](O)[C@H](O)[C@@H]5[C@@H](O)C[C@]34O)OC[C@@H](O)[C@@H]2O)OC[C@@H](O)[C@@H]1O`: the result with Acodontaster conspicuus [1] and in the assay with Acodontaster conspicuus [2] was Active.
